Data from publication PMC7395068, “The evolution of strategies to minimise the risk of human drug-induced liver injury (DILI) in drug discovery and development” (Archives of Toxicology, 2020).
Where two headings read alike, the source gives them in different places. Each block holds one compound with its values, some of them ahead of it.

How the values were obtained:
[1] = tested on: THLE or HepG2 cells, isolated mitochondria, BSEP; details: cited from earlier work
human hepatocytes = details: cited from earlier work
[2] = tested on: HepG2 C3A spheroid, BSEP, Glu/Gal in HepG2 cells, bioactivation; details: cited from earlier work; for Bayesian Machine Learning DILI prediction, Williams (2019): Bayesian modeling, ref Williams et al. 2019
hLiMTs [3] = assay: Combined HCI (HCS) and cellular ATP 3D assay in hLiMTs; details: for DILI prediction hLiMTs (HCS-MEC): Microtissue model structural based (HCI), combined HCS and ATP, MEC < 25 × Cmax.tot cut-off; for hLiMTs <25x Avg Cmax ATP / hLiMTs <100x Avg Cmaxu ATP: ATP endpoint; for hLiMTs <25x Avg Cmax ATP / hLiMTs <25x Avg Cmax HCS / hLiMTs <25x Avg Cmax All: cut-off <25x Avg Cmax; for hLiMTs <100x Avg Cmaxu ATP / hLiMTs <100x Avg Cmaxu HCS / hLiMTs <100x Avg Cmaxu All: cut-off <100x Avg Cmaxu; for hLiMTs <25x Avg Cmax HCS / hLiMTs <100x Avg Cmaxu HCS: HCS endpoints; for hLiMTs <25x Avg Cmax All: all endpoints (ATP and HCS); for hLiMTs Cmax max All / hLiMTs Cmax min All / hLiMTs <10 uM All / hLiMTs <100x Avg Cmaxu All: all endpoints; for hLiMTs Cmax max All: Cmax max used; for hLiMTs Cmax min All: Cmax min used; for hLiMTs <10 uM All: cut-off <10 uM
HepaRG spheroids = assay: Combined HCI (HCS) and cellular ATP 3D assay in HepaRG spheroids; details: for HepaRG <25x Avg Cmax ATP / HepaRG <100x Avg Cmaxu ATP: ATP endpoint; for HepaRG <25x Avg Cmax ATP / HepaRG <25x Avg Cmax HCS / HepaRG <25x Avg Cmax All: cut-off <25x Avg Cmax; for HepaRG <100x Avg Cmaxu ATP / HepaRG <100x Avg Cmaxu HCS / HepaRG <100x Avg Cmaxu All: cut-off <100x Avg Cmaxu; for HepaRG <25x Avg Cmax HCS / HepaRG <100x Avg Cmaxu HCS: HCS endpoints; for HepaRG <25x Avg Cmax All: all endpoints (ATP and HCS); for HepaRG Cmax max All / HepaRG Cmax min All / HepaRG <10 uM All / HepaRG <100x Avg Cmaxu All: all endpoints; for HepaRG Cmax max All: Cmax max used; for HepaRG Cmax min All: Cmax min used; for HepaRG <10 uM All: cut-off <10 uM; for AC50 / minimal effective concentration: Homo sapiens; for HepaRG <25x Avg Cmax ATP / HepaRG <100x Avg Cmaxu ATP / HepaRG <25x Avg Cmax HCS / HepaRG <100x Avg Cmaxu HCS / HepaRG <25x Avg Cmax All / HepaRG Cmax max All / HepaRG Cmax min All / HepaRG <10 uM All / HepaRG <100x Avg Cmaxu All / AC50 / minimal effective concentration: HepaRG; for DILI prediction HepaRG spheroids (HCS-MEC): Microtissue model structural based (HCI), combined HCS and ATP, MEC < 25 × Cmax.tot cut-off
[4] = read-out: Human plasma Cmax; total plasma Cmax.tot, median of 9 literature references; cited from earlier work
[5] = Plasma free fraction (fu) and unbound Cmax (Cmax,u); type: in vitro ADME, human; details: unbound plasma Cmax
[6] = plasma free fraction; cited from earlier work
[7] = cited from earlier work
PHH = details: cited from earlier work
[8] = cited from earlier work; remark: listed apart in the source
hLiMTs [9] = details: cited from earlier work
[10] = Modeled in vitro assays (cytotoxicity, mitochondrial dysfunction, BSEP), ref Aleo et al. 2019
[11] = In vitro Assay, ref Proctor 2017

hLiMTs <25x Avg Cmax ATP (hLiMTs [3]): -ve
hLiMTs <100x Avg Cmaxu ATP (hLiMTs [3]): -ve
hLiMTs <25x Avg Cmax HCS (hLiMTs [3]): -ve
hLiMTs <100x Avg Cmaxu HCS (hLiMTs [3]): -ve
hLiMTs <25x Avg Cmax All (hLiMTs [3]): -ve
hLiMTs Cmax max All (hLiMTs [3]): -ve
hLiMTs Cmax min All (hLiMTs [3]): -ve
hLiMTs <10 uM All (hLiMTs [3]): -ve
hLiMTs <100x Avg Cmaxu All (hLiMTs [3]): -ve
HepaRG <25x Avg Cmax ATP (HepaRG spheroids): -ve
HepaRG <100x Avg Cmaxu ATP (HepaRG spheroids): -ve
HepaRG <25x Avg Cmax HCS (HepaRG spheroids): -ve
HepaRG <100x Avg Cmaxu HCS (HepaRG spheroids): -ve
HepaRG <25x Avg Cmax All (HepaRG spheroids): -ve
HepaRG Cmax max All (HepaRG spheroids): -ve
HepaRG Cmax min All (HepaRG spheroids): -ve
HepaRG <10 uM All (HepaRG spheroids): -ve
HepaRG <100x Avg Cmaxu All (HepaRG spheroids): -ve
Human plasma Cmax,u [5]: 34 nM
SMILES: Cc1ccc(N(CC2=NCCN2)c2cccc(O)c2)cc1 [phentolamine]
Partition Hybrid HRM Score ([1]; In vitro Assay, ref Aleo 2019): -VE
Ro2 Hybrid HRM Score ([1]; In vitro Assay, ref Aleo 2019): -VE
Partition Hybrid HRM Score ≥4, Aleo (2019) [1, 10]: -VE
Partition Hybrid HRM Score ≥8, Aleo (2019) [1, 10]: -VE
Rule of Two hybrid HRM Score ≥3, Aleo (2019) [1, 10]: -VE
Rule of Two hybrid HRM Score ≥8, Aleo (2019) [1, 10]: -VE
Structural based (HCI) (human hepatocytes; In vitro Assay, ref Xu 2008): -VE
DILI in vitro assay prediction, Xu (2008) (human hepatocytes; Structural based (HCI), human hepatocytes, ref Xu et al. 2008): -VE
Bayesian Machine Learning DILI prediction, Williams (2019) [2]: -VE
minimal effective concentration (hLiMTs [3]; Homo sapiens, read-out: HCS endpoint MEC): 87.4 µM
DILI prediction hLiMTs (HCS-MEC) (hLiMTs [3]): -VE
AC50 (HepaRG spheroids; read-out: ATP endpoint AC50): 35.2 µM
minimal effective concentration (HepaRG spheroids; read-out: ATP endpoint MEC): 29.3 µM
AC50 (HepaRG spheroids; read-out: HCS endpoint AC50): 63 µM
minimal effective concentration (HepaRG spheroids; read-out: HCS endpoint MEC): 18.1 µM
DILI prediction HepaRG spheroids (HCS-MEC) (HepaRG spheroids): -VE
Cmax [4]: 75 nM
fu [6]: 0.460

hLiMTs <25x Avg Cmax ATP (hLiMTs [3]): -ve
hLiMTs <100x Avg Cmaxu ATP (hLiMTs [3]): -ve
hLiMTs <25x Avg Cmax HCS (hLiMTs [3]): -ve
hLiMTs <100x Avg Cmaxu HCS (hLiMTs [3]): -ve
hLiMTs <25x Avg Cmax All (hLiMTs [3]): -ve
hLiMTs Cmax max All (hLiMTs [3]): -ve
hLiMTs Cmax min All (hLiMTs [3]): -ve
hLiMTs <10 uM All (hLiMTs [3]): -ve
hLiMTs <100x Avg Cmaxu All (hLiMTs [3]): -ve
HepaRG <25x Avg Cmax ATP (HepaRG spheroids): -ve
HepaRG <100x Avg Cmaxu ATP (HepaRG spheroids): -ve
HepaRG <25x Avg Cmax HCS (HepaRG spheroids): -ve
HepaRG <100x Avg Cmaxu HCS (HepaRG spheroids): -ve
HepaRG <25x Avg Cmax All (HepaRG spheroids): -ve
HepaRG Cmax max All (HepaRG spheroids): -ve
HepaRG Cmax min All (HepaRG spheroids): -ve
HepaRG <10 uM All (HepaRG spheroids): -ve
HepaRG <100x Avg Cmaxu All (HepaRG spheroids): -ve
Human plasma Cmax,u [5]: 85 nM
SMILES: CNC1(C)C2CCC(C2)C1(C)C (stereo not drawn) [mecamylamine]
DILI severity category (Chen et al. [2016]) ([7]; LTKB DILIrank category, ref Chen et al. 2016): No
DILI severity category (Chen 2016) ([7]; human DILI classification, LTKB DILIrank, ref Chen et al. 2016): No
DILI severity category ([7]; human DILI severity, ref Chen et al.): No
DILI +VE (5-8), DILI -VE (-4) ([7]; ref Chen 2016): -VE
DILI severity category ([7]; ref Chen 2016): vNo-DILI-Concern
PHH/100xCmax, Proctor (2017) (PHH; 2D PHH, ATP, IC50 < 100 × Cmax.tot, ref Proctor et al. 2017): -VE
PHH/100uM, Proctor (2017) (PHH; 2D PHH, ATP, IC50 threshold 100 µM, ref Proctor et al. 2017): -VE
PHH ATP <100uM (PHH; [11]): -VE
Assigned DILI category ([8]; Chen et al. 2016 or literature alignment, ref Chen et al. 2016): 1
In vivo DILI ([8]; […]): -VE
In vivo DILI ([8]; ref Proctor 2017): -VE
In vivo DILI ([8]; ref Williams 2019): -VE
hLiMTs ATP <100uM (hLiMTs [9]; [11]): -VE
hLiMTs/100xCmax, Proctor (2017) (hLiMTs [9]; hLiMTs, ATP, IC50 < 100 × Cmax.tot, ref Proctor et al. 2017): -VE
hLiMTs/100uM, Proctor (2017) (hLiMTs [9]; hLiMTs, ATP, IC50 threshold 100 µM, ref Proctor et al. 2017): -VE
Bayesian Machine Learning DILI prediction, Williams (2019) [2]: -VE
Bayesian Machine Learning ([2]; In vitro Assay, ref Williams 2019): -VE
DILI prediction hLiMTs (HCS-MEC) (hLiMTs [3]): -VE
minimal effective concentration (HepaRG spheroids; read-out: HCS endpoint MEC): 12.2 µM
DILI prediction HepaRG spheroids (HCS-MEC) (HepaRG spheroids): -VE
Cmax [4]: 142 nM
fu [6]: 0.600
